The values below come from patent US20100008898A1, “CHYMOTRYPSIN FROM LUCILIA SERICATA LARVAE AND ITS USE FOR THE TREATMENT OF WOUNDS” (priority 2006, published 2010).

In one assay the test system is ES. The experiment in a line: ES activity after incubation with proteinase inhibitors. Details: species or system Lucilia sericata.
A further assay concerns fibroblasts. In words: Fibroblast adhesion to fibronectin-coated surface (ATP assay). It is filed as cell-based. The note with it: for cell adhesion: 1.6 μg/ml commercial trypsin. On the procedure:
(§1) FIG. 10 is two graphs showing the effect of ES, trypsin, chymotrypsin and trypsin/chymotrypsin mix upon fibroblast cell adhesion to a FN-coated surface, following 24 h incubation, in relation to each enzyme concentration's proteolytic activity. Such activity was assessed by monitoring the release of 7-amino-4-methylcoumarin (AMC) from synthetic peptide substrates for a. trypsin or b. chymotrypsin. Cell adhesion was measured using a firefly luciferase-based luminescent adenosine triphosphate (ATP) assay. Results were expressed as mean % cell adhesion of the control±1SD (n=3).
The present inventors undertook a further experiment to compare the effect of the ES chymotrypsin with a commercially available bovine chymotrypsin. The effect of ES upon fibroblast adhesion to fibronectin was therefore compared with commercially available preparations of trypsin and chymotrypsin. This was achieved by seeding fibroblasts upon a fibronectin-coated surface in the presence of various concentrations of ES, commercial trypsin or commercial chymotrypsin. […] An adenosine triphosphate (ATP) assay was then applied in order to quantify the relative numbers of cells remaining upon the surface according to the concentration of ATP detected.

Assay [1] is described as follows: Chymotryptic activity, release of AMC from fluorescent peptide substrate. It is filed as biochemical. As for the experimental part: as §1
(§2) Chymotryptic/tryptic activity was assessed by monitoring the release of 7-amino-4-methylcoumarin (AMC) from Suc-Ala-Ala-Pro-Phe-AMC (chymotryptic) and Tosyl-Gly-Pro-Arg-AMC (tryptic). 50 μl of each fraction was incubated with 150 μl of substrate (5 μM) diluted in PBS. Samples were incubated at 37° C. for 30 minutes after which the fluorescence was measured (excitation 365 nm, emission detection 465 nm) using a Dynex MFX microplate fluorimeter. Proteolytic activity is expressed as the number of fluorescence units emitted over 30 minutes following the deduction of a time zero reading.

A short description of assay [2]: Tryptic activity, release of AMC from fluorescent peptide substrate. It is filed as biochemical. The note with it: 1.6 μg/ml commercial trypsin vs 5 μg/ml ES. As for the experimental part: as §1, §2
Where [3] appears, read: 0.1 μg/ml commercial chymotrypsin.
Where [4] appears, read: 0.2 μg/ml commercial chymotrypsin.

For the molecule `N=C(N)c1ccc(CS(=O)(=O)F)cc1` [APMSF, 4-(amidinophenyl) methane sulphonyl fluoride], the “tissue remodelling and regeneration properties of the ES after incubation with inhibitor” value in the assay with ES was “not lost/inhibited”.
Take chymotrypsin [commercial chymotrypsin]: the fibroblast adhesion entry in the assay with fibroblasts (setting [3]) is listed as “no ability to modify fibroblast adhesion”; in the assay on fibroblasts (setting [4]), “no effect upon fibroblast adhesion”. Moreover, the entries for the “activity against chymotrypsin-specific substrate relative to ES” value in assay [1] (setting [3]) and in assay [1] (setting [4]) were 94.1 % of the activity of 5 μg/ml ES and 204.9 % of the activity of 5 μg/ml ES, respectively.
Regarding trypsin [commercial trypsin], the cell adhesion is recorded as 34.9 % of the control in the assay on fibroblasts (24 hours incubation) and 24.7 % of the control with fibroblasts (48 hours incubation). In assay [2], the “activity against trypsin-specific substrate relative to ES” value is listed as 103.2 % of the activity of ES.
`O=S(=O)(F)Cc1ccccc1` [PMSF, phenyl methanesulphonyl fluoride]: the “tissue remodelling and regeneration properties of the ES after incubation with inhibitor” value in the assay on ES is recorded as “lost or inhibited”.

B1: Soybean Trypsin Inhibitor (protein, UniProt P01070 25-205, looked up)
Trypsin inhibitor A: DFVLDNEGNPLENGGTYYILSDITAFGGIRAAPTGNERCPLTVVQSRNELDKGIGTIISSPYRIRFIAEGHPLSLKFDSFAVIMLCVGIPTEWSVVEDLPEGPAVKIGENKDAMDGWFRLERVSDDEFNNYKLVFCPQQAEDDKCGDIGISIDHDDGTRRLVVSKNKPLVVQFQKLDKESL
As for B1, the “ability of ES to enhance fibroblast migration and degrade extra-cellular matrix proteins after incubation with inhibitor” value with ES was “removes the ability of the ES to enhance fibroblast migration and its ability to degrade extra-cellular matrix proteins”.
